The source of these data is US6602700B1, “Phenolic acid esterases, coding sequences and methods” (University of Georgia Research Foundation, Inc., priority 1998, dated 2003).

SMILES strings stand for the structures.

T1 sequence (P10478 20-286): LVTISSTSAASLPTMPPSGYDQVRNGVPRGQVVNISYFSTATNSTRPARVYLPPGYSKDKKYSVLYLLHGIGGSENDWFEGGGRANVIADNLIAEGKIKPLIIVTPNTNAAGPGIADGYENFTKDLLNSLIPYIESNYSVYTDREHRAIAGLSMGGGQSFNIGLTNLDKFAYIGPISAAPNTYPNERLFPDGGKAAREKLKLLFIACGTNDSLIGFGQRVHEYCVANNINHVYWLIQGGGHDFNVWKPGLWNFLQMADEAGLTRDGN

This test concerns the target T1, FAE (Acetivibrio thermocellus, UniProt P10478).
T1 construct: made in house; host or cells: E. coli BL21(DE3)
As to the kind of experiment: Inhibition of XynZ FAE by ferulic acid and sugars. Type of test: biochemical, Clostridium thermocellum.
Consider `O=C[C@@H](O)[C@H](O)[C@H](O)CO` [arabinose], for which the “Inhibition of FAE” value is recorded as “not”.

On to `COc1cc(/C=C/C(=O)O)ccc1O` [ferulic acid], for which the “Inhibition of FAE” value was “inhibited”.

In the case of `O=C[C@H](O)[C@@H](O)[C@H](O)CO` [xylose], the “Inhibition of FAE” value was “not”.
